Test results taken from paper PMC11859928, “Design, Synthesis, and Antiproliferative Activity of Novel Indole/1,2,4-Triazole Hybrids as Tubulin Polymerization Inhibitors” (Pharmaceuticals, 2025).

Assays:
Assay in all cases: NCI one-dose assay
Assay type in all cases: cell-based
OVCAR-8 = conditions: Homo sapiens, OVCAR-8, Ovarian cancer, read-out: Cell growth inhibition %
Protocol: (§1) The National Cancer Institute (NCI), Bethesda, USA, selected the final compounds 6a–j and 7a–j for in vitro anticancer screening. An initial in vitro single-dose anticancer experiment was performed with the entire NCI 60 cell lines derived from nine tumor subpanel cancer cell lines. The results for each compound were illustrated as a mean graph showing the percentage growth of treated cells compared to untreated control cells (see Supplementary Materials).
(§2) The NCI anticancer screening process has been thoroughly detailed. The Drug Evaluation Branch of the National Cancer Institute in Bethesda, […], USA, established the procedure and conducted the anticancer assay on 60 human tumor cell lines from nine neoplastic cancers.

NCI-H226 = conditions: Homo sapiens, NCI-H226, Non-small cell lung cancer, read-out: Cell growth inhibition %
Protocol: as §1, §2

UACC-62 = conditions: Homo sapiens, UACC-62, Melanoma, read-out: Cell growth inhibition %
Protocol: as §1, §2

DU-145 = conditions: Homo sapiens, DU-145, Prostate cancer, read-out: Cell growth inhibition %
Protocol: as §1, §2

SNB-19 = conditions: Homo sapiens, SNB-19, CNS cancer, read-out: Cell growth inhibition %
Protocol: as §1, §2

RPMI-8226 = conditions: Homo sapiens, RPMI-8226, Leukemia, read-out: Cell growth inhibition %
Protocol: as §1, §2

NCI/ADR-RES = conditions: Homo sapiens, Ovarian cancer, read-out: Cell growth inhibition %
Protocol: as §1, §2

K-562 = conditions: Homo sapiens, K562, K-562, Leukemia, read-out: Cell growth inhibition %
Protocol: as §1, §2

CAKI-1 = conditions: Homo sapiens, CAKI-1, Renal cancer, read-out: Cell growth inhibition %
Protocol: as §1, §2

OVCAR-5 = conditions: Homo sapiens, OVCAR-5, Ovarian cancer, read-out: Cell growth inhibition %
Protocol: as §1, §2

OVCAR-4 = conditions: Homo sapiens, OVCAR-4, Ovarian cancer, read-out: Cell growth inhibition %
Protocol: as §1, §2

UACC-257 = conditions: Homo sapiens, UACC-257, Melanoma, read-out: Cell growth inhibition %
Protocol: as §1, §2

HOP-62 = conditions: Homo sapiens, HOP-62, Non-small cell lung cancer, read-out: Cell growth inhibition %
Protocol: as §1, §2

MDA-MB-435 = conditions: Homo sapiens, MDA-MB-435, Melanoma, read-out: Cell growth inhibition %
Protocol: as §1, §2

PC-3 = conditions: Homo sapiens, PC-3, Prostate cancer, read-out: Cell growth inhibition %
Protocol: as §1, §2

SF-268 = conditions: Homo sapiens, SF-268, CNS cancer, read-out: Cell growth inhibition %
Protocol: as §1, §2

IGROV1 = conditions: Homo sapiens, IGROV-1, IGROV1, Ovarian cancer, read-out: Cell growth inhibition %
Protocol: as §1, §2

SK-MEL-5 = conditions: Homo sapiens, SK-MEL-5, Melanoma, read-out: Cell growth inhibition %
Protocol: as §1, §2

A549/ATCC = conditions: Homo sapiens, Non-small cell lung cancer, read-out: Cell growth inhibition %
Protocol: as §1, §2

ACHN = conditions: Homo sapiens, Renal cancer, read-out: Cell growth inhibition %
Protocol: as §1, §2

OVCAR-3 = conditions: Homo sapiens, OVCAR-3, Ovarian cancer, read-out: Cell growth inhibition %
Protocol: as §1, §2

SNB-75 = conditions: Homo sapiens, SNB-75, CNS cancer, read-out: Cell growth inhibition %
Protocol: as §1, §2

NCI-H23 = conditions: Homo sapiens, NCI-H23, Non-small cell lung cancer, read-out: Cell growth inhibition %
Protocol: as §1, §2

HS 578 T = conditions: Homo sapiens, Breast cancer, read-out: Cell growth inhibition %
Protocol: as §1, §2

HCT-15 = conditions: Homo sapiens, HCT-15, Colon cancer, read-out: Cell growth inhibition %
Protocol: as §1, §2

KM12 = conditions: Homo sapiens, KM12, Colon cancer, read-out: Cell growth inhibition %
Protocol: as §1, §2

MOLT-4 = conditions: Homo sapiens, MOLT-4, Leukemia, read-out: Cell growth inhibition %
Protocol: as §1, §2

M14 = conditions: Homo sapiens, M14, Melanoma, read-out: Cell growth inhibition %
Protocol: as §1, §2

CCRF-CEM = conditions: Homo sapiens, Leukemia, read-out: Cell growth inhibition %
Protocol: as §1, §2

SK-MEL-2 = conditions: Homo sapiens, SK-MEL-2, Melanoma, read-out: Cell growth inhibition %
Protocol: as §1, §2

COLO 205 = conditions: Homo sapiens, COLO 205, Colon cancer, read-out: Cell growth inhibition %
Protocol: as §1, §2

SN12C = conditions: Homo sapiens, Renal cancer, read-out: Cell growth inhibition %
Protocol: as §1, §2

SF-539 = conditions: Homo sapiens, SF-539, CNS cancer, read-out: Cell growth inhibition %
Protocol: as §1, §2

MALME-3M = conditions: Homo sapiens, Melanoma, read-out: Cell growth inhibition %
Protocol: as §1, §2

SR = conditions: Homo sapiens, Leukemia, read-out: Cell growth inhibition %
Protocol: as §1, §2

MDA-MB-468 = conditions: Homo sapiens, MDA-MB-468, Breast cancer, read-out: Cell growth inhibition %
Protocol: as §1, §2

SMILES | inhibition at 10 µM (OVCAR-8) [%] | inhibition at 10 µM (NCI-H226) [%] | inhibition at 10 µM (UACC-62) [%] | inhibition at 10 µM (DU-145) [%] | inhibition at 10 µM (SNB-19) [%] | inhibition at 10 µM (RPMI-8226) [%] | inhibition at 10 µM (NCI/ADR-RES) [%] | inhibition at 10 µM (K-562) [%] | inhibition at 10 µM (CAKI-1) [%] | inhibition at 10 µM (OVCAR-5) [%] | inhibition at 10 µM (OVCAR-4) [%] | inhibition at 10 µM (UACC-257) [%] | inhibition at 10 µM (HOP-62) [%] | inhibition at 10 µM (MDA-MB-435) [%] | inhibition at 10 µM (PC-3) [%] | inhibition at 10 µM (SF-268) [%] | inhibition at 10 µM (IGROV1) [%] | inhibition at 10 µM (SK-MEL-5) [%] | inhibition at 10 µM (A549/ATCC) [%] | inhibition at 10 µM (ACHN) [%] | also measured
O=C(CSc1nnc(-c2c[nH]c3ccccc23)n1-c1ccccc1)c1ccc(Br)cc1 [Compound 6i, 2-((5-(1H-Indol-3-yl)-4-phenyl-4H-1,2,4-triazol-3-yl)thio)-1-(4-bromophenyl) Ethenone] | 56.5 | 60.9 | 64.8 | 41.5 | 29.8 | 45.6 | 100 | 18 | 55.7 | 41.7 | 53.8 | 47.5 | 26.4 | 59.1 | 53.8 | 50.9 | 35.9 | 82.8 | 70.1 | 62.6 | inhibition at 10 µM (OVCAR-3): 57.5%; inhibition at 10 µM (SNB-75): 61.2%; inhibition at 10 µM (NCI-H23): 46%; inhibition at 10 µM (HS 578 T): 47.7%; inhibition at 10 µM (HCT-15): 56%; inhibition at 10 µM (KM12): 65.4%; inhibition at 10 µM (MOLT-4): 7.77%; inhibition at 10 µM (M14): 49%; inhibition at 10 µM (CCRF-CEM): 13.6%; inhibition at 10 µM (SK-MEL-2): 119%; inhibition at 10 µM (COLO 205): 86.5%; inhibition at 10 µM (SN12C): 27.1%; inhibition at 10 µM (SF-539): 38%; inhibition at 10 µM (MALME-3M): 29%; inhibition at 10 µM (SR): 9.15%; inhibition at 10 µM (MDA-MB-468): 78%
O=C(CSc1nnc(-c2c[nH]c3ccccc23)n1-c1ccccc1)c1ccc(Cl)cc1 [Compound 6j, 2-((5-(1H-indol-3-yl)-4-phenyl-4H-1,2,4-triazol-3-yl)thio)-1-(4-chlorophenyl) Ethenone] | 75.5 | 82.4 | 47.2 | 11.6 | 60 | 16.8 | 94.2 | 31 | 35.5 | 9.28 | 85.1 | 27.7 | 53 | 20.8 | 39.5 | 30.6 | 48.6 | 21.8 | 62.5 | 42.5 | inhibition at 10 µM (OVCAR-3): 26.1%; inhibition at 10 µM (SNB-75): 45.3%; inhibition at 10 µM (NCI-H23): 59.2%; inhibition at 10 µM (HS 578 T): 66.8%; inhibition at 10 µM (HCT-15): 26.7%; inhibition at 10 µM (KM12): 21.3%; inhibition at 10 µM (MOLT-4): -3.56%; inhibition at 10 µM (M14): 19.4%; inhibition at 10 µM (CCRF-CEM): 7.26%; inhibition at 10 µM (SK-MEL-2): 66.3%; inhibition at 10 µM (COLO 205): 57.4%; inhibition at 10 µM (SN12C): 35.4%; inhibition at 10 µM (SF-539): 50.5%; inhibition at 10 µM (MALME-3M): 36%; inhibition at 10 µM (SR): 7.63%; inhibition at 10 µM (MDA-MB-468): 53.6%
C=CCn1c(SC/C(=N\O)c2ccccc2)nnc1-c1c[nH]c2ccccc12 [Compound 7a, (Z)-2-((4-Allyl-5-(1H-indol-3-yl)-4H-1,2,4-triazol-3-yl)thio)-1-phenylethanone Oxime] | 1.16 | 12.1 | 13.6 | -5.82 | 6.82 | 0.38 | -6.66 | 3.29 | 6.71 | -3.15 | -8.19 | -13.1 | 9.66 | -5.56 | 9.77 | -7.26 | 7.6 | 1.57 | -6.67 | 3.82 | inhibition at 10 µM (OVCAR-3): -14.9%; inhibition at 10 µM (SNB-75): -3.17%; inhibition at 10 µM (NCI-H23): -1.28%; inhibition at 10 µM (HS 578 T): 5.73%; inhibition at 10 µM (HCT-15): 4.41%; inhibition at 10 µM (KM12): -2.55%; inhibition at 10 µM (MOLT-4): 2.51%; inhibition at 10 µM (M14): -13.4%; inhibition at 10 µM (CCRF-CEM): 0.66%; inhibition at 10 µM (SK-MEL-2): -6.77%; inhibition at 10 µM (COLO 205): 2.04%; inhibition at 10 µM (SN12C): 2.4%; inhibition at 10 µM (SF-539): 3.26%; inhibition at 10 µM (MALME-3M): 7.6%; inhibition at 10 µM (SR): -10.3%; inhibition at 10 µM (MDA-MB-468): 15.4%
C=CCn1c(SCC(=NO)c2ccc(OC)cc2)nnc1-c1c[nH]c2ccccc12 [Compound 7b, 2-((4-allyl-5-(1H-indol-3-yl)-4H-1,2,4-triazol-3-yl)thio)-1-(4-methoxyphenyl) Ethanone Oxime] | 7.1 | 14.9 | 20.9 | -5.85 | 1.65 | 14.9 | -3.18 | 13.6 | 1.5 | -4.1 | -1.81 | -11.5 | 2 | -10.6 | 14.9 | -0.98 | 17.6 | 10.5 | -9.29 | 7.56 | inhibition at 10 µM (OVCAR-3): -9.23%; inhibition at 10 µM (SNB-75): -12.9%; inhibition at 10 µM (NCI-H23): 4.86%; inhibition at 10 µM (HS 578 T): 2.61%; inhibition at 10 µM (HCT-15): 4.34%; inhibition at 10 µM (KM12): -5.28%; inhibition at 10 µM (MOLT-4): 8.18%; inhibition at 10 µM (M14): 2.83%; inhibition at 10 µM (CCRF-CEM): 8.83%; inhibition at 10 µM (SK-MEL-2): -7.88%; inhibition at 10 µM (COLO 205): -11.9%; inhibition at 10 µM (SN12C): 8.24%; inhibition at 10 µM (SF-539): 4.37%; inhibition at 10 µM (MALME-3M): 3.2%; inhibition at 10 µM (SR): 3.76%; inhibition at 10 µM (MDA-MB-468): 16.3%
